This is an account of results in PubChem BioAssay (NCI).

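Growth conditions: 96-well plates. Treatment: test compound, 48 hours, 5 concentrations. Analysis: linear interpolation between bracketing concentrations; unreached endpoints set to highest concentration. GI50 is the concentration that inhibits growth by half. TGI: concentration producing complete growth inhibition.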 Bounds are passed on as bounds.

Some test systems named below: M14 melanoma; RXF 393 renal; SF-268 CNS; 786-0 renal; SK-MEL-5 melanoma; OVCAR-5 ovarian; EKVX NSCLC; NCI-H522 lung; IGROV1 ovarian; K-562 leukemia.
Common to all, as to experiment: NCI anticancer screen, dose series, 48 h

Take `Cc1nc2sc(C(=O)Nc3ccccc3)c(N)c2cc1C(=O)/C=C/c1ccccc1`: the GI50 is 1.76 µM in the test on M14 melanoma; 1.67 µM in the test with RXF 393 renal; 2.94 µM in the test on SF-268 CNS; 1.51 µM with 786-0 renal; 2.27 µM with SK-MEL-5 melanoma; 2.31 µM in the test on OVCAR-5 ovarian. In addition, the GI50 was 2.26 µM in the test on EKVX NSCLC, 1.77 µM in the test with NCI-H522 lung, 1.99 µM with IGROV1 ovarian and 2.41 µM with K-562 leukemia. The TGI amounted to 4.49 µM with M14 melanoma; 3.25 µM in the test on RXF 393 renal; 9.93 µM with SF-268 CNS; 3.01 µM with 786-0 renal; 5.98 µM in the test on SK-MEL-5 melanoma; 7.13 µM in the test with OVCAR-5 ovarian. In addition, the TGI in the test on EKVX NSCLC is 6.48 µM; with NCI-H522 lung it was 4.24 µM; in the test with IGROV1 ovarian it was 4.73 µM; with K-562 leukemia, 17 µM.
With `O=C1/C(=C/c2ccc(O)cc2)COc2ccc(-c3ccccc3)cc21`, the GI50 in the test with M14 melanoma is 12.2 µM; in the test with RXF 393 renal, 3.35 µM; in the test on SF-268 CNS it was 5.49 µM; with 786-0 renal it was 12 µM; with SK-MEL-5 melanoma, 8.67 µM; in the test on OVCAR-5 ovarian, 17.8 µM. For the same molecule, the GI50 was 13.4 µM in the test with EKVX NSCLC, 2.93 µM with NCI-H522 lung, 6.12 µM in the test on IGROV1 ovarian and 2.57 µM in the test with K-562 leukemia. The TGI in the test on M14 melanoma was 39.1 µM; in the test with RXF 393 renal it was 8.25 µM; with SF-268 CNS, 22.8 µM; with 786-0 renal, 32.3 µM; with SK-MEL-5 melanoma, 22.9 µM; with OVCAR-5 ovarian it was 33.8 µM. Besides, the TGI in the test on EKVX NSCLC was 32.1 µM; in the test with NCI-H522 lung it was 16.4 µM; with IGROV1 ovarian it was 20.8 µM; in the test on K-562 leukemia, > 39.3 µM.
On to `Clc1nc(Cl)c2c(ncn2C/C=C\Cn2cnc3c(Cl)nc(Cl)nc32)n1`, for which the GI50 in the test on M14 melanoma was 2.79 µM; in the test with RXF 393 renal, 0.351 µM; in the test with SF-268 CNS it was 1.74 µM; in the test on 786-0 renal, 2.93 µM; in the test on SK-MEL-5 melanoma it was 1.31 µM; in the test with OVCAR-5 ovarian, 1.96 µM. The GI50 with EKVX NSCLC is 1.85 µM; in the test with NCI-H522 lung it was 0.697 µM; with IGROV1 ovarian, 0.269 µM; with K-562 leukemia, 0.801 µM. The TGI in the test with M14 melanoma turned out to be 6.92 µM; in the test with RXF 393 renal, 0.906 µM; in the test with SF-268 CNS it was 5.49 µM; in the test with 786-0 renal, 10.5 µM; in the test with SK-MEL-5 melanoma it was 2.79 µM; with OVCAR-5 ovarian it was 3.74 µM. Further, the TGI in the test on EKVX NSCLC amounted to 3.5 µM; with NCI-H522 lung, 2.1 µM; in the test with IGROV1 ovarian, 0.771 µM; in the test on K-562 leukemia it was 21.1 µM.
As to `CCCCCCCCCc1cc(=O)c2ccc(O)cc2o1`, the TGI in the test with M14 melanoma, in the test with RXF 393 renal, in the test on SF-268 CNS, in the test with 786-0 renal, in the test on SK-MEL-5 melanoma and in the test with OVCAR-5 ovarian was > 100 µM each time. Moreover, the TGI in the test on EKVX NSCLC, in the test on NCI-H522 lung, with IGROV1 ovarian and with K-562 leukemia was > 100 µM throughout.
For the molecule `CN(C)C(=S)N=Nc1c(O)[nH]c2ccccc12`, the GI50 with M14 melanoma is 0.484 µM; with RXF 393 renal, 1.05 µM; in the test on SF-268 CNS, 0.593 µM; in the test with 786-0 renal, 0.891 µM; in the test on SK-MEL-5 melanoma, 0.626 µM; with OVCAR-5 ovarian it was 1.49 µM. Also, the GI50 with EKVX NSCLC was 0.397 µM; in the test with NCI-H522 lung, 0.355 µM; in the test on IGROV1 ovarian, 0.508 µM; with K-562 leukemia, 0.475 µM. For the same molecule, the TGI in the test on M14 melanoma came to 9.41 µM; with RXF 393 renal, 14.5 µM; in the test on SF-268 CNS, 12.6 µM; in the test on 786-0 renal, 12.2 µM; in the test with SK-MEL-5 melanoma, 12.5 µM; in the test on OVCAR-5 ovarian, 21 µM. Also, the TGI was 11 µM in the test on EKVX NSCLC, 11 µM in the test on NCI-H522 lung, 7.39 µM in the test with IGROV1 ovarian and > 57.8 µM in the test with K-562 leukemia.
For `Nc1cc(N)c(N)cc1N`, the GI50 is 1.87 µM with M14 melanoma; 1.73 µM in the test on RXF 393 renal; 3.06 µM with SF-268 CNS; 2.27 µM in the test on 786-0 renal; 0.736 µM in the test on SK-MEL-5 melanoma; 2.18 µM in the test on OVCAR-5 ovarian. Besides, the GI50 in the test with EKVX NSCLC was 2.7 µM; with NCI-H522 lung it was 1.48 µM; in the test on IGROV1 ovarian it was 2.17 µM; in the test on K-562 leukemia, 2.92 µM. In addition, the TGI with M14 melanoma was found to be 3.37 µM; with RXF 393 renal, 3.19 µM; in the test with SF-268 CNS, 12.2 µM; in the test with 786-0 renal, 4.99 µM; in the test with SK-MEL-5 melanoma, 2.02 µM; in the test with OVCAR-5 ovarian, 4.99 µM. Besides, the TGI with EKVX NSCLC is 8.02 µM; in the test with NCI-H522 lung it was 2.9 µM; in the test with IGROV1 ovarian, 4.83 µM; in the test with K-562 leukemia it was > 100 µM.
With `Oc1ccc(CCCCCCc2ccc(O)cc2)cc1`, the GI50 in the test with M14 melanoma was 4.7 µM; in the test with RXF 393 renal, 8.03 µM; in the test on SF-268 CNS, 3.89 µM; in the test with 786-0 renal, 3.65 µM; in the test on SK-MEL-5 melanoma, 5.27 µM; in the test on OVCAR-5 ovarian, 16.9 µM. In addition, the GI50 in the test with EKVX NSCLC was 10.3 µM; with NCI-H522 lung it was 5.98 µM; with IGROV1 ovarian, 8.83 µM; in the test with K-562 leukemia it was 6.81 µM. Further, the TGI came out at 17.5 µM in the test on M14 melanoma; 21.5 µM with RXF 393 renal; 17.5 µM in the test on SF-268 CNS; 15.1 µM in the test with 786-0 renal; 17.1 µM in the test on SK-MEL-5 melanoma; 31.4 µM in the test on OVCAR-5 ovarian. Further, the TGI in the test with EKVX NSCLC was 26.7 µM; in the test on NCI-H522 lung, 24.2 µM; with IGROV1 ovarian, 28.4 µM; in the test on K-562 leukemia it was > 75.1 µM.
Take `CN(CCOc1ccc(C#N)cc1)CCOc1ccc(C#N)cc1`: the GI50 was 78.9 µM in the test with M14 melanoma; 46.8 µM in the test on RXF 393 renal; > 100 µM with SF-268 CNS; > 100 µM in the test with 786-0 renal; 78.6 µM in the test on SK-MEL-5 melanoma; > 100 µM in the test on OVCAR-5 ovarian. The GI50 in the test with EKVX NSCLC is 63.2 µM; with NCI-H522 lung, 4.98 µM; with IGROV1 ovarian, 1.66 µM; with K-562 leukemia, 16.7 µM. Moreover, the TGI in the test on M14 melanoma, in the test on RXF 393 renal, in the test on SF-268 CNS, in the test on 786-0 renal, with SK-MEL-5 melanoma and in the test on OVCAR-5 ovarian was > 100 µM in each case. The TGI in the test on EKVX NSCLC is > 100 µM; in the test on NCI-H522 lung, > 100 µM; in the test on IGROV1 ovarian it was 24.7 µM; in the test with K-562 leukemia, > 100 µM.
